Laboratory results published in US8729048B2, “Methods and materials for assessing responsiveness to PARP inhibitors and platinating agents” (Mayo Foundation for Medical Education and Research, priority 2011, dated 2014).

Experiments:
Type in all cases: cell-based
[1] = tested on: DNA-PK substrates (DNA-PKcs Thr2609, Histone H2AX Ser139) in PEO1 cells; test: Immunoblotting for phosphorylation of DNA-PK substrates; settings: 72 hours, with 20 μM ABT-888, 500 nM DNA-PKi or 5 μM ATMi
Protocol: FIG. 2. DNA-PK is activated following PARP inhibitor exposure in PEO1 cells. (A) Western blots for poly(ADP-ribose) polymer (pADPr) and phosphorylation of DNA-PK substrates (DNA-PKcs autophosphorylation at Thr^2609 and Histone H2AX at Ser^139) in PEO1 cells following 72 hours exposure to increasing concentrations of ABT-888 (0, 0.625, 1.25, 2.5, 5, 10, 20, and 40 μM). Hsp90, total DNA-PKcs, and Histone H1 are used as loading controls. (B) Phosphorylation of DNA-PK substrates after treatment for 72 hours with diluent (0.2% DMSO, lanes 1 and 4), 500 nM DNA-PK inhibitor AZ12594248 (DNA-PKi, lanes 2 and 5), or 5 μM ATM inhibitor KU55933 (ATMi, lanes 3 and 6) alone (lanes 1-3) or in combination with 20 μM ABT-888 (lanes 4-6). (C) Quantitation of cells positive for phospho-H2AX foci in PEO1 and PEO4 cells, following treatment with DMSO, 500 nM DNA-PKi, 20 μM ABT-888 (ABT), ABT-888 and DNA-PKi, 50 μM Etoposide (Etop), or 5 Gy ionizing radiation (IR). Cells were exposed to ABT-888 and/or DNA-PKi for 72 hours, etoposide for 1 hour, or allowed to recover for 1 hour after IR. Results are reported as mean±SEM of 3 independent experiments. (D) Confocal images of PEO1 cells treated as in […]. Phospho-Ser^139-H2AX is shown in green, phospho-Thr^2609-DNA-PKcs in red, and Hoechst 33258 in blue.
Cells were washed twice with calcium- and magnesium-free Dulbecco's phosphate-buffered saline (PBS) and solubilized in 6 M guanidine hydrochloride containing 250 mM Tris-HCl, pH 8.5 at 20° C., 10 mM EDTA, 1% (v/v) 2-mercaptoethanol, and 1 mM freshly added phenylmethylsulfonyl fluoride. After preparation for electrophoresis as described elsewhere (Kaufmann et al., Blood, 89:2098-2104 (1997)), aliquots containing 50 μg of protein (determined by the bicinchoninic acid method—S10) were separated on SDS-polyacrylamide gels containing 8% (w/v) acrylamide, electrophoretically transferred to nitrocellulose, and probed with immunological reagents as described elsewhere (Kaufmann, Anal. Biochem., 296:283-286 (2001)). […]

[2] = tested on: BRCA2-deficient PEO1 cells; test: Clonogenic assay, PEO1
Protocol: (§1) FIG. 5. NHEJ is a major contributor to PARP inhibitor effects in BRCA2-deficient cells. (A) Western blots showing knockdown of Ku80 in PEO1 and PEO4 cells. (B) Clonogenic survival of PEO1 and PEO4 cells from (A), which were treated with the indicated ABT-888 concentration for 72 hours, washed, and allowed to form colonies. (C) Western blots following treatment with siRNA targeting luciferase (control), Ku80, PARP1, or both Ku80 and PARP1. (D) Clonogenic viability of PEO 1 and PEO4 cells from (C). Following knockdown, cells were plated onto triplicate plates and allowed to form colonies. (E) Clonogenic survival of PEO1 cells following Artemis knockdown. After treatment with the indicated siRNA, plates were treated with indicated concentration of ABT-888 for 72 hours, washed, and allowed to form colonies. Inset, Western blots showing knockdown using luciferase (control) or Artemis siRNAs in PEO1 cells. (F) Clonogenic survival of PEO1 and PEO4 cells treated for 72 hours with ABT-888 in combination with diluent or 500 nM DNA-PKi. All results are reported as means of triplicate plates±SEM, and are representative of 3 independent experiments.
FIG. 13. DNA-PK inhibition diminishes the lethality of multiple PARP inhibitors in PEO1 cells. (A) Representative clonogenic plates after PEO1 cells were treated with ABT-888 (0, 5, or 20 μM) with or without 500 nM DNA-PKi. (B, C) Bar graphs comparing clonogenic survival of PEO1 cells exposed to two PARP inhibitors with or without 500 nM DNA-PKi. The PARP inhibitors used for these assays are ABT-888 (B) and AZD2281/olaparib (C). Results are reported as mean±SEM of triplicate plates.
FIG. 18. Artemis knockdown confers resistance to PARP inhibition and cisplatin in BRCA2-deficient/mutant cells. Clonogenic survival assays of PEO1 shRNA lines continuously exposed to ABT-888 (A) or cisplatin (B), or exposed to ionizing radiation (C). (D-F) Clonogenic survival assays of CAPAN1 shRNA lines exposed to ABT-888 (D), cisplatin (E), or exposed to ionizing radiation (F).
(§2) Colony formation assays were performed on siRNA-transfected PEO1 and PEO4 cells 48 hours after the second transfection. Cells were trypsinized and plated at 750 cells/plate in triplicate 60-mm dishes containing medium A, allowed to grow 10-14 days, and stained with Coomassie Brilliant Blue. Colonies containing ≧50 cells were scored manually. To assess methyl methanesulfonate (MMS) sensitivity, PEO1 or PEO4 cells were incubated for 48 hours after the second siRNA treatment, plated onto 60-mm dishes, allowed to adhere for 4 hours, exposed to the indicated concentration of MMS (Sigma-Aldrich) for 1 hour, washed with sterile RPMI 1640, and allowed to grow into colonies in medium A. For drug treatment, cells (without siRNA) were allowed to adhere for 4-6 hours, then treated with the indicated concentrations of ABT-888 and/or AZ12594248 for 72 hours. Following drug treatment, cells were washed with drug-free RPMI 1640, cultured for 10-14 days in medium A, and stained. For HCC1937 and HCC1937/BRCA1 cells, a similar procedure was used with several changes: 1000 cells were plated in medium B, and treatment was continuous for 16-20 days. M059J and M059J+DNA-PKcs were plated at 1000 cells per plate in medium C and treated for 48 hours. GM16666 and 16667 were plated at 1000 cells per plate in medium D and treated for 48 hours.

[3] = tested on: BRCA2-positive PEO4 cells; test: Clonogenic assay, PEO4; settings: XRCC1 siRNA, 1 hour exposure
Protocol: as §1
as §2, with “Following drug treatment, cells were washed with drug-free RPMI 1640, cultured for 10-14 days in medium A, and stained. For HCC1937 and HCC1937/BRCA1 cells, a similar procedure was used with several changes: 1000 cells were plated in medium B, and treatment was continuous for 16-20 days. M059J and M059J+DNA-PKcs were plated at 1000 cells per plate in medium C and treated for 48 hours. GM16666 and 16667 were plated at 1000 cells per plate in medium D and treated for 48 hours.” left out

O=c1cc(-c2cccc3c2Sc2ccccc2S3)oc(N2CCOCC2)c1 [KU55933]
effect on ABT-888-induced phosphorylation of DNA-PKcs and H2AX [1]: did not

N.N.[Cl][Pt][Cl] [cisplatin]
clonogenic sensitivity after stable Artemis knockdown ([2]; PEO1 shRNA lines, continuous exposure): conferred resistance

COS(C)(=O)=O [methane methylsulfonate, methyl methanesulfonate]
clonogenic sensitivity after XRCC1 knockdown ([2]; PEO1 cells, XRCC1 siRNA, 1 hour exposure): sensitized | clonogenic sensitivity after XRCC1 knockdown [3]: sensitized
